Results reported in paper PMC8175350, “Drug repurposing screens identify chemical entities for the development of COVID-19 interventions” (Nature Communications, 2021).
Where a name gives a salt, the structure may show the parent alone. Read-outs that look alike come from different tables or passages of the source.

Experiments:
Calu-3 cells [1] = experiment: Uninfected Calu-3 48 h Cell-Titer Glo cytotoxicity counter screen; details: human, uninfected Calu-3 cells, 48 h
[2] = as above; details: human, uninfected Calu-3 cells, Calu-3 uninfected cytotoxicity CC50 GeoMean
Calu-3 cells [3] = experiment: cells; details: Homo sapiens; for EC50: Calu-3, read-out: Calu-3 cell count EC50 GeoMean; for Emax: Calu-3, 48 h, read-out: Calu-3 cell count Sinf Average
SARS-CoV-2 [4] = experiment: microbe, parasite or virus in culture; assay type: cell-based; details: for Emax: Severe acute respiratory syndrome coronavirus 2, HeLa-ACE2, 10 h, read-out: HeLa-ACE2 TOA CoV-2 Sinf Average; for EC50: read-out: HeLa-ACE2 TOA CoV-2 EC50 GeoMean
HeLa-ACE2 cells [5] = experiment: Uninfected HeLa-ACE2 24 h live/dead cytotoxicity counter screen; assay type: cell-based, human
[6] = as above; assay type: cell-based, human; details: human, uninfected HeLa-ACE2 cells; read-out: HeLa-ACE2 uninfected cytotoxicity CC50 GeoMean
HeLa-ACE2 cells [7] = experiment: cells; details: Homo sapiens; for Emax: HeLa-ACE2, 24 h, read-out: HeLa-ACE2 cell count Sinf Average; for EC50: HeLa-ACE2, read-out: HeLa-ACE2 cell count EC50 GeoMean
SARS-CoV-2 [8] = experiment: microbe, parasite or virus in culture; assay type: cell-based; details: for Emax: Severe acute respiratory syndrome coronavirus 2, Calu-3, 48 h, read-out: Calu-3 CoV-2 Sinf Average; for EC50: read-out: Calu-3 CoV-2 EC50 GeoMean
SARS-CoV-2 [9] = experiment: microbe, parasite or virus in culture; assay type: cell-based; details: for Emax: Severe acute respiratory syndrome coronavirus 2, HeLa-ACE2, 24 h, read-out: HeLa-ACE2 CoV-2 Sinf Average; for EC50: read-out: HeLa-ACE2 CoV-2 EC50 GeoMean
HEK293T [10] = experiment: HEK293T 72 h CellTiter-Glo cytotoxicity; details: 72 h
[11] = HEK293T 72 h CellTiter-Glo cytotoxicity; details: human, HEK293T cells
HepG2 [12] = experiment: HepG2 72 h CellTiter-Glo cytotoxicity; details: 72 h
[13] = HepG2 72 h CellTiter-Glo cytotoxicity; details: human, HepG2 cells
HeLa-ACE2 cells [14] = experiment: Total cell count in the HeLa-ACE2 TOA (time of addition) assay; assay type: cell-based, human; details: for EC50: Homo sapiens, HeLa-ACE2, read-out: HeLa-ACE2 TOA cell count EC50 GeoMean
Calu-3 cells [15] = details: for Calu-3 uninfected cytotoxicity Sinf Average: human
HEK293T [16] = details: human, 72 h
SARS-CoV-2 [17] = assay type: cell-based; details: combination with remdesivir
HepG2 [18] = details: human, 72 h
in vitro = details: human, Calu-3 uninfected cytotoxicity CC50 GeoMean
[19] = Severe acute respiratory syndrome coronavirus 2, HeLa-ACE2
[20] = human, uninfected HeLa-ACE2 cells, 24 h
[21] = Severe acute respiratory syndrome coronavirus 2, Calu-3, detail column
[22] = selectivity index, uninfected Calu-3 CC50 / SARS-CoV-2 EC50
[23] = Severe acute respiratory syndrome coronavirus 2, HeLa-ACE2, detail column
[24] = selectivity index, uninfected HeLa-ACE2 CC50 / SARS-CoV-2 EC50
[25] = Severe acute respiratory syndrome coronavirus 2, Calu-3

## OC(CNCC(O)C1CCc2cc(F)ccc2O1)C1CCc2cc(F)ccc2O1 (centres unmarked) [Nebivolol HCl]
Calu-3 cells [1]
  Calu-3 uninfected cytotoxicity Sinf Average: -100%
[2]
  CC50 at 48 h: 13.6 µM
Calu-3 cells [3]
  EC50: > 9.98 µM
SARS-CoV-2 [4]
  TOA:HeLa-ACE2 EC50 Ratio: 0.619
  Emax: 98%
SARS-CoV-2 [4]; [19]
  EC50: 1.83 µM
HeLa-ACE2 cells [5]; [20]
  HeLa-ACE2 uninfected cytotoxicity Sinf Average: -103%
[6]
  CC50 at 24 h: > 11.1 µM
HeLa-ACE2 cells [7]
  Emax: 100%
  EC50: > 9.12 µM
SARS-CoV-2 [8]
  Emax: 100%
SARS-CoV-2 [8]; [21]
  EC50: > 8.69 µM
SARS-CoV-2 [8]; [22]
  Calu-3 SI: < 1.57
SARS-CoV-2 [9]
  Emax: 99%
SARS-CoV-2 [9]; [23]
  EC50: 2.96 µM
SARS-CoV-2 [9]; [24]
  HeLa-ACE2 SI: > 3.75
HEK293T [10]
  HEK293T 72-hour cytotoxicty Sinf Average: -106%
[11]
  CC50 at 72 h: 5.57 µM
HepG2 [12]
  HepG2 72-hour cytotoxicity Sinf Average: -99%
[13]
  CC50 at 72 h: 7.62 µM
HeLa-ACE2 cells [14]
  HeLa-ACE2 TOA cell count Sinf Average: 70%
  EC50: > 4.56 µM

## Nc1nc(Nc2ccc3c(c2)CC[C@@H](N2CCCC2)CC3)nn1-c1cc2c(nn1)-c1ccccc1CCC2 [BGB324]
Calu-3 cells [15]
  uninfected Calu-3 CC50: 19.024 ×÷ 1.18 (n=3) μM
Calu-3 cells [15]; 48 h
  Calu-3 uninfected cytotoxicity Sinf Average: -100%
Calu-3 cells [3]
  Emax: 100%
  EC50: 6.27 µM
SARS-CoV-2 [4]
  TOA:HeLa-ACE2 EC50 Ratio: 7.782
  Emax: 100%
SARS-CoV-2 [4]; [19]
  EC50: > 9.35 µM
HEK293T [16]
  HEK293T 72-hour cytotoxicty Sinf Average: -102%
HeLa-ACE2 cells [5]; [20]
  HeLa-ACE2 uninfected cytotoxicity Sinf Average: -101%
[6]
  CC50 at 24 h: 15.7 µM
HeLa-ACE2 cells [7]
  Emax: 100%
  EC50: > 9.15 µM
SARS-CoV-2 [8]
  Emax: 100%
SARS-CoV-2 [8]; [21]
  EC50: 6.94 µM
SARS-CoV-2 [8]; [22]
  Calu-3 SI: 2.74
SARS-CoV-2 [9]
  Emax: 98%
SARS-CoV-2 [9]; [23]
  EC50: 1.2 µM
SARS-CoV-2 [9]; [24]
  HeLa-ACE2 SI: 13.05
HeLa-ACE2 cells [14]
  EC50: > 9.59 µM
SARS-CoV-2 [17]
  HeLa-ACE2 synergy score with remdesivi: 7.223 δ
HepG2 [18]
  HepG2 72-hour cytotoxicity Sinf Average: -105%
In vitro
  CC50 at 48 h: 19 µM

## Cc1cccc(/C=N/Nc2cc(N3CCOCC3)n3nc(-c4ccncc4)cc3n2)c1 [APY0201]
Calu-3 cells [15]
  uninfected Calu-3 CC50: > 26.965 ×÷ 1.196 (n=6) μM
Calu-3 cells [15]; 48 h
  Calu-3 uninfected cytotoxicity Sinf Average: -100%
Calu-3 cells [3]
  Emax: 100%
  EC50: > 9.98 µM
SARS-CoV-2 [4]
  Emax: 100%
SARS-CoV-2 [4]; [23]
  EC50: > 9.59 µM
HEK293T [16]
  HEK293T 72-hour cytotoxicty Sinf Average: -96%
HeLa-ACE2 cells [5]; [20]
  HeLa-ACE2 uninfected cytotoxicity Sinf Average: -100%
[6]
  CC50 at 24 h: > 39.4 µM
HeLa-ACE2 cells [7]
  EC50: > 9.59 µM
SARS-CoV-2 [8]
  Emax: 97%
SARS-CoV-2 [8]; [21]
  EC50: > 9.39 µM
SARS-CoV-2 [9]
  Emax: 96%
SARS-CoV-2 [9]; [23]
  EC50: 0.014 µM
SARS-CoV-2 [9]; [24]
  HeLa-ACE2 SI: > 2853.95
HeLa-ACE2 cells [14]
  EC50: > 9.59 µM
HepG2 [18]
  HepG2 72-hour cytotoxicity Sinf Average: -100%
In vitro
  CC50 at 48 h: > 27 µM

## CCN(CC)CCCNc1ccnc2cc(Cl)ccc12 [AQ-13]
Calu-3 cells [15]
  uninfected Calu-3 CC50: > 29.255 ×÷ 1.046 (n=4) μM
Calu-3 cells [15]; 48 h
  Calu-3 uninfected cytotoxicity Sinf Average: -100%
Calu-3 cells [3]
  EC50: > 9.98 µM
SARS-CoV-2 [4]
  TOA:HeLa-ACE2 EC50 Ratio: 12.002
  Emax: 100%
SARS-CoV-2 [4]; [23]
  EC50: > 9.61 µM
HEK293T [16]
  HEK293T 72-hour cytotoxicty Sinf Average: -100%
HeLa-ACE2 cells [5]; [20]
  HeLa-ACE2 uninfected cytotoxicity Sinf Average: -100%
[6]
  CC50 at 24 h: 25.9 µM
HeLa-ACE2 cells [7]
  EC50: > 9.6 µM
SARS-CoV-2 [8]
  Emax: 100%
SARS-CoV-2 [8]; [25]
  EC50: > 9.98 µM
SARS-CoV-2 [9]
  Emax: 101%
SARS-CoV-2 [9]; [23]
  EC50: 0.8 µM
SARS-CoV-2 [9]; [24]
  HeLa-ACE2 SI: 32.34
HeLa-ACE2 cells [14]
  EC50: > 9.61 µM
SARS-CoV-2 [17]
  HeLa-ACE2 synergy score with remdesivi: -1.765 δ
HepG2 [18]
  HepG2 72-hour cytotoxicity Sinf Average: -100%
In vitro
  CC50 at 48 h: > 29.3 µM

## COc1cc(-n2cnc3cc(-c4ccc(Cl)cc4)sc3c2=O)ccc1OCCN1CCCC1 [GW-803430]
Calu-3 cells [15]
  Calu-3 uninfected cytotoxicity Sinf Average: -116%
Calu-3 cells [3]
  Emax: 100%
  EC50: > 9.98 µM
SARS-CoV-2 [4]
  TOA:HeLa-ACE2 EC50 Ratio: 5.656
  Emax: 100%
SARS-CoV-2 [4]; [23]
  EC50: > 9.59 µM
HeLa-ACE2 cells [5]
  HeLa-ACE2 uninfected cytotoxicity Sinf Average: -100%
[6]
  CC50 at 24 h: 18.9 µM
HeLa-ACE2 cells [7]
  Emax: 100%
  EC50: > 7.88 µM
SARS-CoV-2 [8]
  Calu-3 SI: 0.88
  Emax: 100%
SARS-CoV-2 [8]; [25]
  EC50: 6.57 µM
SARS-CoV-2 [9]
  HeLa-ACE2 SI: 11.16
  Emax: 100%
SARS-CoV-2 [9]; [19]
  EC50: 1.7 µM
HEK293T [10]
  HEK293T 72-hour cytotoxicty Sinf Average: -101%
HepG2 [12]
  HepG2 72-hour cytotoxicity Sinf Average: -100%
HeLa-ACE2 cells [14]
  EC50: > 9.59 µM
In vitro
  CC50: 5.81 µM
